Reference: patent US11945806B2, “Stabilization of amyloidogenic immunoglobulin light chains” (The Scripps Research Institute, priority 2019, dated 2024)

The compounds below were run against WIL-FL (Homo sapiens, UniProt P01721) (assay: Unlabeled LC Protease Sensitivity Assay (proteinase K)). Details: small molecule 10 μM, WIL-FL 5 μM, proteinase K 50 nM, 2 hours at 37° C.
Assay type: biochemical
Protocol: Unlabeled LC Protease Sensitivity Assay. WIL-FL (5 μM) in phosphate-buffered saline (PBS, pH 7.4)+0.02% Pluronic F-127 was incubated with proteinase K (50 nM) with small molecule (10 μM) in 1% DMSO vehicle, or vehicle alone. After 2 hours at 37° C., reactions were quenched with 2 mM phenylmethyl sulfonyl fluoride in methanol and centrifuged at 14,000 rpm for 2 minutes. Remaining WIL-FL was quantified by injecting 10 μL of the supernatant into a Waters Acquity H-Class Bio-UPLC (ultra performance liquid chromatography) instrument equipped with a BEH200 analytical size-exclusion column (1.7 μm, 4.6×150 mm) under isocratic conditions (0.2 mL/min, PBS+1 mM EDTA, 2400 psi backpressure, 15 min), monitoring absorbance at 280 nm. Activity of each compound is given as fold protection from protease=(A_compound−A_vehicle)/(A_no_protease−A_vehicle), where each “A” corresponds to peak integration of the respective treatment.

SMILES | Protection (fold protection of LC from protease)
CCN(CC)c1ccc2c(C)c(CC(=O)NCCN(C)C)c(=O)oc2c1 [Compound 58, 2-(7-(diethylamino)-4-methyl-2-oxo-2H-chromen-3-yl)-N-(2-(dimethylamino)ethyl)acetamide] | A (A < 0.3))
CCN(CC)c1ccc2c(C)c(CC(=O)NCCCN(C)C)c(=O)oc2c1 [Compound 59, 2-(7-(diethylamino)-4-methyl-2-oxo-2H-chromen-3-yl)-N-(3-(dimethylamino)propyl)acetamide] | A (A < 0.3))
CCN(CC)c1ccc2c(C)c(CC(=O)NC)c(=O)oc2c1 [Compound 60, 2-(7-(diethylamino)-4-methyl-2-oxo-2H-chromen-3-yl)-N-methylacetamide] | A (A < 0.3))
CCN(CC)c1ccc2c(C)c(CC(=O)N(C)C)c(=O)oc2c1 [Compound 61, 2-(7-(diethylamino)-4-methyl-2-oxo-2H-chromen-3-yl)-N,N-dimethylacetamide] | A (A < 0.3))
CCN(CC)c1ccc2c(C)c(CCC(=O)O)c(=O)oc2c1 [Compound 62, 3-(7-(diethylamino)-4-methyl-2-oxo-2H-chromen-3-yl)propanoic acid] | A (A < 0.3))
CCN(CC)c1ccc2c(C)c(CCC(=O)NCCc3ccccc3)c(=O)oc2c1 [Compound 64, 3-(7-(diethylamino)-4-methyl-2-oxo-2H-chromen-3-yl)-N-phenethylpropanamide] | A (A < 0.3))
CCN(CC)c1ccc2c(C)c(CCC(=O)NC)c(=O)oc2c1 [Compound 66, 3-(7-(diethylamino)-4-methyl-2-oxo-2H-chromen-3-yl)-N-methylpropanamide] | A (A < 0.3))
CCN(CC)c1ccc2c(C)c(CCC(=O)NCCCN(C)C)c(=O)oc2c1 [Compound 68] | A (A < 0.3))
CCN(CC)c1ccc2c(C)c(CCNC(=O)OC(C)(C)C)c(=O)oc2c1 [Compound 69, Tert-butyl (2-(7-(diethylamino)-4-methyl-2-oxo-2H-chromen-3-yl)ethyl)carbamate] | A (A < 0.3))
CCN(CC)c1ccc2c(C)c(CCNC(=O)CCc3ccccc3)c(=O)oc2c1 [Compound 70, N-(2-(7-(diethylamino)-4-methyl-2-oxo-2H-chromen-3-yl)ethyl)-3-phenylpropanamide] | A (A < 0.3))
CCN(CC)c1ccc2c(C)c(CCC(=O)NCCc3ccccc3F)c(=O)oc2c1 [Compound 71] | A (A < 0.3))
CCN(CC)c1ccc2c(C)c(CCC(=O)NCCc3cccc(F)c3)c(=O)oc2c1 [Compound 72] | A (A < 0.3))
CCN(CC)c1ccc2c(C)c(CCC(=O)NCCc3ccc(F)cc3)c(=O)oc2c1 [Compound 73] | A (A < 0.3))
CCN(CC)c1ccc2c(C)c(CCC(=O)NCCc3ccncc3)c(=O)oc2c1 [Compound 76] | A (A < 0.3))
CCN(CC)c1ccc2c(C)c(CCOC(=O)NCc3ccccc3)c(=O)oc2c1 [Compound 78, 2-(7-(diethylamino)-4-methyl-2-oxo-2H-chromen-3-yl)ethyl benzylcarbamate] | A (A < 0.3))
CCN(CC)c1ccc2c(C)c(CCOC(=O)NC)c(=O)oc2c1 [Compound 79, 2-(7-(diethylamino)-4-methyl-2-oxo-2H-chromen-3-yl)ethyl methylcarbamate] | A (A < 0.3))
CCN(CC)c1ccc2c(C)c(CCOC(=O)NCCc3ccccc3)c(=O)oc2c1 [Compound 80, 2-(7-(diethylamino)-4-methyl-2-oxo-2H-chromen-3-yl)ethyl phenethylcarbamate] | A (A < 0.3))
CCN(CC)c1ccc2c(C)c(CCOC(=O)NCCCc3ccccc3)c(=O)oc2c1 [Compound 81, 2-(7-(diethylamino)-4-methyl-2-oxo-2H-chromen-3-yl)ethyl (3-phenylpropyl)carbamate] | A (A < 0.3))

SMILES | Protection (fold protection of LC from protease)
CCN(CC)c1ccc2c(C)c(CCOC(=O)NCCc3ccccn3)c(=O)oc2c1 [Compound 82, 2-(7-(diethylamino)-4-methyl-2-oxo-2H-chromen-3-yl)ethyl (2-(pyridin-2-yl)ethyl)carbamate] | A (A < 0.3))
CCN(CC)c1ccc2c(C)c(CCOC(=O)NCCc3cccnc3)c(=O)oc2c1 [Compound 83, 2-(7-(diethylamino)-4-methyl-2-oxo-2H-chromen-3-yl)ethyl (2-(pyridin-3-yl)ethyl)carbamate] | A (A < 0.3))
CCN(CC)c1ccc2c(C)c(CCOC(=O)NCCc3ccncc3)c(=O)oc2c1 [Compound 84, 2-(7-(diethylamino)-4-methyl-2-oxo-2H-chromen-3-yl)ethyl (2-(pyridin-4-yl)ethyl)carbamate] | A (A < 0.3))
CCN(CC)c1ccc2c(C)c(CCOC(=O)NCc3ccccn3)c(=O)oc2c1 [Compound 85, 2-(7-(diethylamino)-4-methyl-2-oxo-2H-chromen-3-yl)ethyl (pyridin-2-ylmethyl)carbamate] | B (3 ≤ B < 0.6)
CCN(CC)c1ccc2c(C)c(CCOC(=O)NCc3ccncc3)c(=O)oc2c1 [Compound 86, 2-(7-(diethylamino)-4-methyl-2-oxo-2H-chromen-3-yl)ethyl (pyridin-4-ylmethyl)carbamate] | B (3 ≤ B < 0.6)
CCN(CC)c1ccc2c(C)c(CCOC(=O)NCc3ccco3)c(=O)oc2c1 [Compound 87, 2-(7-(diethylamino)-4-methyl-2-oxo-2H-chromen-3-yl)ethyl (furan-2-ylmethyl)carbamate] | B (3 ≤ B < 0.6)
CCN(CC)c1ccc2c(C)c(CCOC(=O)NCCc3cnc[nH]3)c(=O)oc2c1 [Compound 88, 2-(7-(diethylamino)-4-methyl-2-oxo-2H-chromen-3-yl)ethyl (2-(1H-imidazol-4-yl)ethyl)carbamate] | B (3 ≤ B < 0.6)
CCN(CC)c1ccc2c(C)c(CCOC(=O)NCc3cccnc3)c(=O)oc2c1 [Compound 89, 2-(7-(diethylamino)-4-methyl-2-oxo-2H-chromen-3-yl)ethyl (pyridin-3-ylmethyl)carbamate] | C (C ≥ 0.6)
CCN(CC)c1ccc2c(C)c(CCOC(=O)NCc3ccncn3)c(=O)oc2c1 [Compound 90, 2-(7-(diethylamino)-4-methyl-2-oxo-2H-chromen-3-yl)ethyl (pyrimidin-4-ylmethyl)carbamate] | A (A < 0.3))
CCN(CC)c1ccc2c(C)c(CCOC(=O)NCc3cnccn3)c(=O)oc2c1 [Compound 91, 2-(7-(diethylamino)-4-methyl-2-oxo-2H-chromen-3-yl)ethyl (pyrazin-2-ylmethyl)carbamate] | B (3 ≤ B < 0.6)
CCN(CC)c1ccc2c(C)c(CCOC(=O)NCc3ccn[nH]3)c(=O)oc2c1 [Compound 92, 2-(7-(diethylamino)-4-methyl-2-oxo-2H-chromen-3-yl)ethyl ((1H-pyrazol-5-yl)methyl)carbamate] | B (3 ≤ B < 0.6)
CCN(CC)c1ccc2c(C)c(CCOC(=O)NCc3ncccn3)c(=O)oc2c1 [Compound 93, 2-(7-(diethylamino)-4-methyl-2-oxo-2H-chromen-3-yl)ethyl (pyrimidin-2-ylmethyl)carbamate] | B (3 ≤ B < 0.6)
CCN(CC)c1ccc2c(C)c(CCNC(C)=O)c(=O)oc2c1 [Compound 94, N-(2-(7-(diethylamino)-4-methyl-2-oxo-2H-chromen-3-yl)ethyl)acetamide] | A (A < 0.3))
CCN(CC)c1ccc2c(C)c(CCNC(=O)CCc3ccncc3)c(=O)oc2c1 [Compound 96, N-(2-(7-(diethylamino)-4-methyl-2-oxo-2H-chromen-3-yl)ethyl)-3-(pyridin-4-yl)propanamide] | A (A < 0.3))
CCN(CC)c1ccc2c(C)c(CCOC(=O)NCc3ccc(Cl)nc3)c(=O)oc2c1 [Compound 97, 2-(7-(diethylamino)-4-methyl-2-oxo-2H-chromen-3-yl)ethyl ((6-chloropyridin-3-yl)methyl)carbamate] | A (A < 0.3))
CCN(CC)c1ccc2c(C)c(CCNC(=O)NCc3cccnc3)c(=O)oc2c1 [Compound 98, 1-(2-(7-(diethylamino)-4-methyl-2-oxo-2H-chromen-3-yl)ethyl)-3-(pyridin-3-ylmethyl)urea] | C (C ≥ 0.6)
CCN(CC)c1ccc2c(C)c(CCNC(=O)NCCc3cccnc3)c(=O)oc2c1 [Compound 99, 1-(2-(7-(diethylamino)-4-methyl-2-oxo-2H-chromen-3-yl)ethyl)-3-(2-(pyridin-3-yl)ethyl)urea] | B (3 ≤ B < 0.6)
